Values of other authors, collected in patent publication US20140080923A1, “STEVIA BASED SWEETENING COMPOSITION” (STEVINOL LTD., priority 2011, published 2014).

Settings: background statement

Compound	sweetness compared with sucrose
C=C1C[C@@]23CC[C@H]4[C@@](C)(CCC[C@@]4(C)C(=O)O[C@@H]4O[C@H](CO)[C@@H](O)[C@H](O)[C@H]4O)[C@@H]2CC[C@]1(O[C@@H]1O[C@H](CO)[C@@H](O)[C@H](O)[C@H]1O[C@@H]1O[C@H](CO)[C@@H](O)[C@H](O)[C@H]1O)C3 [stevioside]	~300 times sweeter than sucrose
C=C1C[C@@]23CC[C@H]4[C@@](C)(CCC[C@@]4(C)C(=O)O[C@@H]4O[C@H](CO)[C@@H](O)[C@H](O)[C@H]4O)[C@@H]2CC[C@]1(O[C@@H]1O[C@H](CO)[C@@H](O)[C@H](O[C@@H]2O[C@H](CO)[C@@H](O)[C@H](O)[C@H]2O)[C@H]1O[C@@H]1O[C@H](CO)[C@@H](O)[C@H](O)[C@H]1O)C3 [rebaudioside A]	~300 times sweeter than sucrose
